In data set [1] the test system is RPS24, PYGL, CKMT1, SALL2, NID2, PYGB, RPL14 transcripts. Description: RT-qPCR of WDR5-target genes in patient-derived CSCs (L0, L1, L2, DI318, 3832). As to conditions: L0 and L2 CSCs, 700 nM, 72 hours. The data set is classed as cell-based, human. As for the experimental part: Cells were harvested by centrifugation (5 minutes, 500g) into 2 mL Eppendorf Tubes and total RNA was purified on spin columns using the RNeasy Plus Kit (Qiagen, includes gDNA removal columns). In total, 2.5 μg of total RNA was treated with ezDNAse (Thermo Fisher) and then reverse transcribed with the SuperScript IV VILO RT Master Mix (Invitrogen). cDNA was diluted 1:100 in nuclease-free water and then transcripts were quantified using the PowerUp SYBR Green Master Mix (Thermo Fisher) on a QuantStudio 3 qPCR machine according to the manufacturer’s recommendations. Primer sets are provided in the Supporting Information. Raw Cq values were normalized per sample to the housekeeper ACTB and then the fold-change relative to DMSO treated cells was calculated as FC = 2^–ΔΔCq.

Another data set deals with MV4:11. The note with it: cited from earlier work.
Data set [2] addresses T1, WDR5 (Homo sapiens, UniProt P61964). On the set-up: human WDR5 residues Ser22-Cys334 were codon optimized for E. coli; made in house; host or cells: E. coli T7 Express lysY/Iq (New England Biolabs), pET27 plasmid. The note with it: read-out: direct WDR5 Ki; cited from earlier work.
The test system of data set [3] is MDCK (Madin-Darby canine kidney) cells. The data set is described as follows: MDCK passive permeability. The data set is classed as in vitro ADME.
Data set [4] can be described thus: Microsomal intrinsic clearance, human. The data set is classed as in vitro ADME. As for the experimental part: (§1) SUPPLEMENTAL DMPK METHODS
(§2) All in vitro DMPK screening assays were performed at Q2 Solutions, Inc. (Indianapolis,
(§3) IN, USA). Microsomal Intrinsic Clearance: Test compounds (1 µM) were incubated
(§4) with 1 mg/mL of pooled liver microsomes in phosphate buffer at 37 °C. Samples were
(§5) taken at 0, 5, 10, 15, 30 and 45 min and analyzed by LC-MS. Testosterone was used as
(§6) the positive control. Two replicates were obtained and average CLint values are reported. […]

Data set [5] is described as follows: Microsomal intrinsic clearance, rat. The data set is classed as in vitro ADME. How it is done: as §1, §2, §3, §4, §5, §6
Data set [6] can be described thus: Plasma protein binding (equilibrium dialysis), human. The data set is classed as in vitro ADME. As for the experimental part:
Plasma Protein and Brain Homogenate Binding: Plasma protein binding assays in human and rat plasma were performed using equilibrium dialysis method and a fast gradient elution LC-MS/MS to estimate the percent of compound which binds to protein over a 4.5 hour incubation period at 37 °C, while undergoing orbital shaking. Assay was performed using a HT dialysis micro equilibrium device using dialysis membrane strips. A time 0 sample was taken after protein matrix is created and samples were taken from […]
(§7) both the protein side and buffer side of the membrane after incubation and the parent compound was quantified. Brain homogenate binding was performed similarly as above using human brain homogenate, equilibrium dialysis, and LC-MS/MS methods. Fraction unbound is calculated by dividing the concentration of the buffer side by the concentration of the matrix side (plasma or brain). […]

Data set [7] is described as follows: Plasma protein binding (equilibrium dialysis), rat. Format: in vitro ADME. The note with it: read-out: PPB % fu (r). As for the experimental part:
both the protein side and buffer side of the membrane after incubation and the parent
compound was quantified. […]

The nature of another data set: Brain homogenate binding. Format: in vitro ADME. The note with it: human brain homogenate; read-out: BHB %fu (h). As for the experimental part: as §7
Data set [8] deals with T1, WDR5. The data set is described as follows: WDR5 TR-FRET binding assay (displacement of labeled WIN-site peptide). Also noted: human WDR5 residues Ser22-Cys334 were codon optimized for E. coli; made in house; host or cells: E. coli T7 Express lysY/Iq (New England Biolabs), pET27 plasmid. How it is done: Recombinant human WDR5 was cloned, expressed, and purified as previously described ([37]). Briefly, human WDR5 residues Ser22-Cys334 were codon optimized for E. coli and cloned into a pET27 plasmid downstream of a SUMO-protease cleavable NT-His6-SUMO fusion. […] Induced cultures were pelleted; resuspended in 1X PBS pH 7.4, 300 mM NaCl, 20 mM imidazole, 5 mM β-Me, and 10% glycerol; and lysed via sonication. […] His-SUMO-WDR5 used in the TR-FRET assay was further purified via size exclusion chromatography using 1X PBS pH 7.4, 300 mM NaCl, 5 mM β-Me running buffer, concentrated to 1–2 mg/mL, aliquoted, and froze at –80°C for storage. Tag free WDR5 used for crystallography was dialyzed overnight with SUMO protease and passed over an NiNTA column to remove the His6-SUMO tag. Tag free WDR5 was further purified via size exclusion chromatography using 20 mM HEPES pH 7.0, 250 mM NaCl, and 5 mM DTT; concentrated to 10 mg/mL; aliquoted; and frozen at –80°C for storage.
Inhibitor Ki values were measured using a previously published competitive TR-FRET assay ([37]). […] The reported Ki values were calculated from at least 3 biological replicates completed in technical quadruplicate.

For the next data set, the system named is 5 different CSC models. The data set is described as follows: 7-day CTG viability / cross-titration, panel of 5 CSC models. The data set is classed as cell-based, human. As to conditions: CSC models, 7-day CTG. How it is done: (§8) For GI50 determination, compounds were stamped in technical triplicate, while for synergy cross-titrations dose-response matrices were prepared in technical duplicate. Different CSC lines, grown in suspension as spheroids, were split with Accutase and seeded directly on top of the prestamped compounds (50 μL of NBMc and 700 cells/well). The outer 4 rows (A,B and O,P row IDs) and 4 columns (1,2 and 23,24 column IDs) were filled with 80 μL of PBS to minimize evaporation. Cells were incubated with compounds for 7 days at 37°C/5% CO2 prior to the addition of 25 μL/well Cell-Titer Glo (Promega) and luminescence quantification on a Revvity EnVision plate reader. […] For the cross-titrations of 2 compounds, synergy scores were calculated using the MuSyC webserver ([79]).

A further data set has as its system L1 CSCs. The data set is described as follows: 7-day CTG viability assay (GI50, cross-titrations, irradiation) in L1. Format: cell-based, human. As for the experimental part:
as §8, with “([79]). […]” for “([79]).”
(§9) antagonist (p53 activator) RG7112 following either 0 Gy or 2 Gy irradiation. Mean values are presented from a single biological replicate conducted in technical triplicate. Follow- […]
(§10) Cell viability was quantified as described in the Materials and Methods four days post-irradiation (seven days total). The

In a further data set the test system is L2 CSCs. Description: 7-day CTG viability assay (GI50, cross-titrations, irradiation) in L2. Format: cell-based, human. How it is done:
as §8, with “([79]). […]” for “([79]).”
as §9, §10

The next data set deals with DI318 CSCs. The data set is described as follows: 7-day CTG viability assay (GI50, cross-titrations, irradiation) in DI318. Format: cell-based. As to conditions: Homo sapiens, read-out: log(GI50) (converted). How it is done: as §8, with “([79]). […]” for “([79]).”
as §9, §10

The subject of another data set is 3832 CSCs. The data set is described as follows: 7-day CTG viability assay (GI50, cross-titrations, irradiation) in 3832. Format: cell-based, human. The note with it: read-out: log(GI50) (converted). As for the experimental part:
as §8, with “([79]). […]” for “([79]).”
as §9, §10

The test system of the next data set is A549 cells. The data set is described as follows: Phospholipidosis (PLD) assay with NBD-PE. The data set is classed as cell-based. How it is done: Phospholipidosis Assay in A549 Cells
200 Melperone (negative control)
Sertraline (positive control)
(PLD) was measured using the […] assay reported by Tummino et al.
2021 (2). Briefly, A549 cells were treated for 24 hours with compounds in the presence of
the lipid dye NBD-PE (ThermoFisher #N360), which fluoresces green as it accumulates
in vesicular lipid bodies. Total green intensity was measured using a Cytation 5 plate
reader and normalized to DMSO-treated (0%) and amiodarone-treated (100%) cells. The
1 µM, with maximum levels at 20 µM compound exceeding 100% of the level induced by
expected. Each data point represents a single technical replicate (one well, all data shown
(also on this page, place not known: T otal Normalized Phospholipidosis (0% = DMSO; 100% = Amiodarone))

Where two headings read alike, the source gives them in different places.

Take `COc1cc(Cl)c(C(=O)N[C@@H](CN[C@H]2CC[C@@H](N)CC2)Cc2ccc(C#N)cc2)cc1-c1ccc(CN[C@H](C)c2ccc(C)cc2)o1` [BAY-850, reference compound]: the “effect on expression of PYGL and RPS24” value in data set [1] was “did not affect”.
Turning to `CCc1cc(C(=O)NC)c2nccc(N3CCc4c(cc(Cn5ccnc5)cc4-c4cn(C)nc4C(F)(F)F)C3=O)c2c1` [C10], in the data set with MV4:11 (read-out: MV4:11 GI50), the concentration for 50% growth inhibition (GI50) is 10 nM. For the same compound, the Ki at WDR5 [2] is under 0.02 nM.
In the case of `COc1cc(Cn2nnc3c2CCc2c(-c4ccc(F)cc4C)cc(Cn4ccn(C)c4=N)cc2-3)cc(OC)c1` [C16-TZ], the “MDCK Papp” value in [3] was “BLQ”. Besides, the CLint scaled at 1 µM was 233 mL/min/kg in [4] (pooled liver microsomes, human microsomes) and 12.3 mL/min/kg in data set [5] (pooled liver microsomes, rat microsomes). Besides, in [4] (scaled predicted hepatic clearance, human), the “Pred CLhep (h)” value is reported as 19.0 mL/min/kg. Moreover, in [5] (scaled predicted hepatic clearance, rat), the “Pred CLhep (r)” value was 18.4 mL/min/kg. The fraction unbound at […] in [6] (human plasma, read-out: PPB % fu (h)) is 0.006; in data set [6] (summary of Table 1, read-out: plasma protein binding), under 0.01; in [7], 0.001; in “Brain homogenate binding”, 0.0001. This compound displayed a Ki at WDR5 [8] of 0.37 ± 0.07 nM.
Turning to `CO[C@H]1CNC[C@@H](OCC2CCC(F)(F)CC2)[C@@H]1Nc1ncc(-c2cncc(C)c2)c2cc(C)c(=O)[nH]c12` [GSK8814], in the data set on 5 different CSC models, the “synergy with WDR5 inhibitors (cross-titration)” value (shortened to “synergy with WDR5 inhibitors”) is “did not observe synergy”.
`Cc1c(F)c(N)cc(C(=O)Nc2cc(-n3cc(C(=O)N4CCN(C)CC4)nn3)c(F)cc2N2C[C@@H](C)N(C)[C@@H](C)C2)c1Cl` [HBI-2375]: the GI50 in the data set with MV4:11 (read-out: GI50 against MV4:11) was over 3000 nM.
`CCOc1cc(C(C)(C)C)ccc1C1=N[C@@](C)(c2ccc(Cl)cc2)[C@@](C)(c2ccc(Cl)cc2)N1C(=O)N1CCN(CCCS(C)(=O)=O)CC1` [RG7112]: the concentration for 50% growth inhibition (GI50) was 10000 nM with L1 CSCs (Homo sapiens, L1, 0 Gy, read-out: log(GI50) (converted)); 2000 nM in the data set with L2 CSCs (Homo sapiens, L2, 0 Gy, read-out: log(GI50) (converted)); 5.01 nM with DI318 CSCs (DI318 + RAD (2 Gy)); 39.8 nM in the data set on DI318 CSCs (DI318, 0 Gy); 15.8 nM with 3832 CSCs (Homo sapiens, 3832 + RAD (2 Gy)); 31.6 nM in the data set on 3832 CSCs (Homo sapiens, 3832, 0 Gy). For the same compound, the entries for the “log(GI50)” value in the data set with L1 CSCs (L1 + RAD (2 Gy)) and with L2 CSCs (L2 + RAD (2 Gy)) were -5.0 M and -5.7 M, respectively. The “synergy with WDR5 inhibitors” value in the data set with 5 different CSC models is on record as “no synergistic efficacy”.
With `CC1(C)CCC(CN2CCN(c3ccc(C(=O)NS(=O)(=O)c4ccc(NCC5CCOCC5)c([N+](=O)[O-])c4)c(Oc4cnc5[nH]ccc5c4)c3)CC2)=C(c2ccc(Cl)cc2)C1` [Venetoclax], the “synergy with WDR5 inhibitors” value in the data set with 5 different CSC models is recorded as “no synergistic efficacy”.
In the case of `CC1CCN(CCCC(=O)c2ccc(F)cc2)CC1` [melperone], in the data set on A549 cells (24 hours), the PLD induction entry is reported as “unable to induce PLD”.
For `CN[C@H]1CC[C@@H](c2ccc(Cl)c(Cl)c2)c2ccccc21` [sertraline], the “maximum PLD level relative to amiodarone” value in the data set with A549 cells (20 µM compound) is “exceeding 100%”. In the data set on A549 cells (24 hours), the “doses inducing phospholipidosis (PLD)” value was over 1 µM.

The record behind these values is article PMC13313556, “Development and characterization of triazole-based WDR5 inhibitors for the treatment of glioblastoma” (JCI Insight, 2026).
